According to patent US12285440B2, “APOE4 impairs myelination via altered cholesterol biosynthesis and transport in oligodendroglia” (Massachusetts Institute of Technology, priority 2021, dated 2025):
Entries after “also recorded” stand apart in the source; their conditions may differ.

Key:
[1] = system: iMGLs; experiment: Calcium imaging of Fluo-4 AM labeled iMGLs with compound uncaging; format: cell-based, human; settings: uncaging at 405 nm; for amplitude of calcium transients upon uncaging: 1 mM Caged NMDA or 1 mM Caged Glutamate
[2] = system: forebrain spheroids; format: cell-based, human
[3] = system: excitatory neurons generated by the rapid induction of NGN2 expression; experiment: MEA recording of NGN2-induced neurons treated with cholesterol; format: cell-based, human
Source text: (§1) Cholesterol is essential for proper neuronal physiology, and cholesterol depletion is known to impair neurotransmission. Since we detect extracellular accumulation of cholesterol in APOE4 iMGLs, we wondered what the impact of exogenous cholesterol treatment would be to these neuronal cultures. Due to the extended culture times of spheroids, we opted to conduct these studies with excitatory neurons generated by the rapid induction of NGN2 expression. […] To further dissect the physiological process that renders neurons less excitable upon treatment with exogenous cholesterol, we next assessed iPSC-derived neurons by patch-clamp electrophysiology. […] Potentiation of Kir currents is aligned with our observation in cells recorded on MEA, as strong inwardly-rectifying potassium currents are known to hyperpolarize resting membrane potentials and decrease neuronal excitability.
Dissociated spheroids or NGN2-induced neurons were plated as a 10 μl droplet in Poly-D-Lysine (Sigma-Aldrich) coated wells of a CytoView MEA 48-well plate (Axion BioSystems; M768-tMEA-48B). […] Spontaneous neural activity was recorded for 30 minutes at a sampling rate of 12.5 kHz and an adaptive threshold set at 5.5 times the standard deviation of baseline noise was used for spike detection. […]

[4] = system: dissociated spheroid cultures; experiment: Patch-clamp electrophysiology of dissociated spheroid neurons with exogenous cholesterol; format: cell-based, human; settings: 1 mM cholesterol in external solution
Source text: as §1
Whole-cell patch-clamp recordings of neurons were performed at 6 to 8 weeks after spheroid dissociation and 2D plating, or for iMGLs after 2 to 4 weeks of iMGL differentiation. […] Membrane potentials were typically kept between −50 mV to −70 mV depending on whether neurons or iMGLs were being recorded. In voltage-clamp mode, currents were recorded with voltage steps ranging from −160 mV to +80 mV. […] ATP-evoked currents were recorded by local application of 100 μM (Sigma-Aldrich; #A9187). […]

[5] = system: APOE4 iPSC-derived oligodendroglia; experiment: APOE oligodendroglia drug treatment, bodipy-cholesterol and bodipy lipid droplet staining; format: cell-based, human; settings: for total bodipy-cholesterol staining: APOE4 oligodendroglia treated two weeks (Atorvastatin 1 μM, Simvastatin 1 μM, Cyclodextrin 10 mM), compared with APOE3/3 oligodendroglia
Experimental: It was reasoned that inhibiting cholesterol biosynthesis and/or facilitating cholesterol transport in APOE4 oligodendrocytes may reduce intracellular accumulation and improve myelination.
Cells were plated onto a Millipore eight-chamber glass slide, at a density of 250,000 cells per well. Cells were then cultured in Neurobasal media, supplemented with PDGFR-α, NT3 and β-FGF. […] Cells were fixed with 4% PFA, and stained for Bodipy-cholesterol, WGA-555 and DAPI.

[6] = system: APOE4 oligodendroglia/iNeuron co-cultures; experiment: In vitro myelination assay, oligodendroglia/iNeuron co-cultures, MBP and neurofilament staining; format: cell-based, human; settings: APOE4 co-cultures treated 6 weeks
Source text: To further investigate the effect of APOE4 on myelination an in vitro model of myelination was developed that employs the genetically controlled isogenic APOE cells derived from CRISPR-edited iPSCs. To achieve this, iPSC-derived oligodendroglia were co-cultured with neurons induced from iPSCs using NGN2 overexpression (iNeurons) in a three-dimensional extracellular matrix that allows each cell type to interact with other cells and self-assemble into tissue-like structures (FIG. 10D). After 2 weeks in these 3D co-cultures, MBP-positive oligodendroglia spread across the culture and engage neurofilament-positive axons (FIG. 10E). After 6 weeks in culture, myelin-associated proteins 04 and Mbp encircled numerous neurofilaments, mimicking biological processes critical to myelination (FIG. 10E). […] Therefore, it was sought to use this in vitro myelination assay to assess the effect of APOE4 on myelin-associated phenotypes in human cells. Consequently, oligodendroglia/iNeuron co-cultures from two different APOE4/4 and APOE3/3 isogenic sets of iPSC-derived cells were established. […]
To determine whether cyclodextrin-induced cholesterol reduction in APOE4 oligodendroglia affected myelination, APOE4 oligodendroglia/iNeuron co-cultures were treated with cyclodextrin for 6 weeks and then assessed myelination phenotypes (FIG. 4C). […]

[7] = system: APOE4KI mice; experiment: Cyclodextrin treatment of APOE4KI mice, brain immunohistochemistry (bodipy-cholesterol, Olig2, Mbp); format: in vivo, mouse; settings: 2 g/kg subcutaneous twice a week for eight weeks, vs saline control
Experimental: It was next assessed whether cyclodextrin could reduce aberrant cholesterol accumulation in oligodendrocytes and promote increased myelination in APOE4KI mice in vivo. APOE4KI mice were treated with subcutaneous injections of cyclodextrin or saline (control) for eight weeks (n=5 control and 4 cyclodextrin treated mice). […] To more directly assess myelination in cyclodextrin treated APOE4 mice, TEM-based ultrastructural analysis was performed.
Animals were anaesthetized via exposure to gaseous isoflurane, and transcardially perfused with ice-cold PBS. The brains were dissected out, one hemisphere frozen in dry ice, and one hemisphere drop-fixed in 4% paraformaldehyde. The post-fixed hemisphere was sliced at a thickness of 40 μm using a Leica vibratome. Slices were blocked with a buffer containing 0.3% Triton-X and 10% normal donkey serum for two hours at room temperature, before being incubated with primary antibody overnight at 4° C. Slices were then washed with PBS and incubated with secondary antibody for two hours at room temperature, washed with PBS again, and mounted. Slides were imaged using a Zeiss LSM 880 microscope, and analyzed using the ImageJ “FIJI” or Imaris softwares. Human brain tissue slices were further incubated with TrueBlack for five minutes prior to mounting, to reduce auto-fluorescence.
(§2) APOE4KI female mice were injected subcutaneously with either 200 μL Cyclodextrin (2 g/kg) or 200 μL saline, twice a week for eight weeks.

[8] = system: APOE4KI mice; experiment: Novel object recognition task; format: in vivo, mouse; settings: female APOE4KI mice, control n=12, cyclodextrin n=14
Experimental: (§3) To investigate whether the increased myelination observed in cyclodextrin treated APOE4KI mice could promote functional improvements, the novel object recognition assay was performed to evaluate learning and memory (FIG. 4G)^57.
as §2
(§4) Mice were placed in an open field arena and allowed to move freely for ten minutes. The total distance moved and time mice spent in the center of the arena was tracked using the EthoVision XT software from Noldus. 24 hours later, mice were then placed into the same arena containing two objects and allowed to freely investigate both for a period of eight minutes. After an interval of four hours, mice were then placed back in the chamber with one novel object and one familiar object. The preference index was calculated by determining how much time an animal spent with its nose interacting with the novel object, divided by the total time an animal spent interacting with either object.

[9] = system: APOE4KI mice; experiment: Open field task; format: in vivo, mouse; settings: cyclodextrin-treated vs control APOE4KI mice
Experimental: as §3, §2, §4

[10] = system: CYP46A1; settings: APOE4 oligodendroglia treated two weeks, vs untreated APOE4 controls
[11] = system: APOE4KI mice; experiment: Cyclodextrin treatment of APOE4KI mice, TEM of corpus callosum (g-ratio); settings: n=150 neurons, 2 g/kg subcutaneous twice a week for eight weeks, vs control mice
[12] = system: iMGLs; experiment: Whole-cell patch-clamp of iMGLs, ATP-evoked currents; format: cell-based, human; settings: local application of 100 μM

## CN[C@H](CC(=O)O)C(=O)O [NMDA]
[1]
  amplitude of calcium transients upon uncaging: increase the amplitude of calcium transients

## NC1=N[C@H](O)[C@H]2[C@H]3O[C@]4(O)O[C@@H]([C@@H](O)[C@@]2(N1)[C@@H]4O)[C@]3(O)CO [tetrodotoxin]
[2]
  increase in iMGL calcium transients mediated by stimulated spheroid media: reduced to levels of non-stimulated spheroid media

## CC(C)CCC[C@@H](C)[C@H]1CC[C@H]2[C@@H]3CC=C4C[C@@H](O)CC[C@]4(C)[C@H]3CC[C@]12C [cholesterol]
[3]
  neuronal activity on MEA: phenocopied our observation of treatment with APOE4 iMGL conditioned media
[4]
  resting membrane potential (RMP): significantly hyperpolarized the resting membrane potential
[4]; vs non-treated neurons
  I-V curve, inwardly-rectifying potassium (Kir) currents: greater inwardly-rectifying potassium (Kir) currents

## 2-hydroxypropyl-β-cyclodextrin
[5]
  total bodipy-cholesterol staining: reduced bodipy-cholesterol staining that was not significantly different (p>0.9999) from that in APOE3 oligodendroglia
[5]; cyclodextrin-treated vs control APOE4 oligodendroglia
  neutral lipid droplets measured by bodipy staining: significant (p<0.0001) reduction
[5]; cyclodextrin-treated vs control APOE4 oligodendroglia, normalized to nuclei
  number of intracellular droplets of bodipy-cholesterol: significant (p=0.0092) reduction
[6]
  levels of MBP localization with neurofilament, comparison with APOE3 co-cultures: not significantly (p=0.0794) different from APOE3 co-cultures
[6]; untreated APOE4 18.89%, APOE3 62.42%, p=0.0274
  MBP staining localized along neurofilament staining: 43.44%+/−5.382
[7]
  Mbp staining: significantly (p=0.0008) increased Mbp staining; also recorded: overall increase in Mbp
  bodipy-cholesterol staining co-localizing within 1 μm of Mbp staining: significant (p=0.0423) increase; also recorded: increase in cholesterol-myelin colocalization
[7]; hippocampus
  bodipy-cholesterol staining accumulated around Olig2-positive nuclei: significantly (p=0.0038) reduced compared to control mice; also recorded: reduction of bodipy-cholesterol staining in cyclodextrin-treated mice
[8]
  preference for novel object: significantly (p=0.0466) increased preference for interacting with the novel object
[9]; p=0.1275
  total distance moved: similar
[9]; p=0.1711
  velocity: similar
[9]; p=0.4478
  duration in the center of the cages: similar
[10]
  expression of CYP46A1: significant (p=0.0011) upregulation
[11]
  g-ratio: significantly (p<0.0001) lower g-ratio; also recorded: decrease in g-ratio

## CC(C)c1c(C(=O)Nc2ccccc2)c(-c2ccccc2)c(-c2ccc(F)cc2)n1CC[C@@H](O)C[C@@H](O)CC(=O)O [atorvastatin]
[5]
  total bodipy-cholesterol staining: significantly (p=0.0085 and 0.0450) higher than APOE3/3 oligodendroglia

## N[C@@H](CCC(=O)O)C(=O)O [glutamate]
[1]
  amplitude of calcium transients upon uncaging: increase the amplitude of calcium transients

## Nc1ncnc2c1ncn2[C@@H]1O[C@H](COP(=O)(O)OP(=O)(O)OP(=O)(O)O)[C@@H](O)[C@H]1O [ATP]
[1]; 1 mM Caged ATP
  calcium transients upon ATP uncaging: robust increase in calcium transients
[12]
  response to extracellular ATP, whole-cell patch-clamp: iMGLs sensed extracellular ATP
